{"source": "patent US11117915B2", "about": "“Antibacterial aminoglycoside analogs” (Cipla USA, Inc., priority 2007, dated 2021)", "key": {"P. aeruginosa ATCC 27853 [1]": {"system": "P. aeruginosa ATCC 27853", "assay": "murine septicemia model of infection, P. aeruginosa", "type": "in vivo", "conditions": "mice inoculated IP, single SC or IV dose 1 hour after challenge, mortality 7 days; ED50 values are mg/kg", "description": "(§1) Two models were run on each compound, using E. coli and P. aeruginosa QC bacterial strains. Both studies employed the same design. […] At 1 hour after bacterial challenge, the mice received a single SC or IV […] dose of vehicle or test substance to assess in vivo anti-infective activity. Mortality was recorded once daily for 7 days after bacterial inoculation."}, "P. aeruginosa ATCC 27853 [2]": {"system": "P. aeruginosa ATCC 27853", "assay": "MIC assay, CLSI broth microdilution, P. aeruginosa ATCC 27853 (APAE001)", "type": "cell-based", "conditions": "for MIC: Pseudomonas aeruginosa", "procedure,_shortened": "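Test compounds were diluted two-fold at 2× strength in Mueller Hinton Broth, then combined 1:1 with saline-suspended bacteria from an overnight agar colony to reach 5×10^5 CFU/mL. Incubation followed at 35° C. for 20 hours in ambient air, per CLSI reference methods.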"}, "E. coli ATCC 25922 [3]": {"system": "E. coli ATCC 25922", "assay": "murine septicemia model of infection, E. coli", "type": "in vivo", "conditions": "mice inoculated IP, single SC or IV dose 1 hour after challenge, mortality 7 days; ED50 values are mg/kg", "description": "as §1"}, "E. coli ATCC 25922 [4]": {"system": "E. coli ATCC 25922", "assay": "MIC assay, CLSI broth microdilution, E. coli ATCC 25922 (AECO001)", "type": "cell-based", "conditions": "for MIC: Escherichia coli", "procedure,_shortened": "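Bacteria from overnight agar colonies, suspended in saline, added to serial two-fold dilutions in Mueller Hinton Broth at 5×10^5 CFU/mL final. Incubation 35° C., 20 hours, ambient air, per CLSI M7-A7 reference method.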"}, "[5]": {"conditions": "ATCC27853, Table 2, read-out: MIC P. aeruginosa"}, "[6]": {"conditions": "APAE001 is ATCC27853, 35° C., 20 hours, read-out: MIC APAE001"}, "[7]": {"conditions": "AECO001 is ATCC25922, 35° C., 20 hours, read-out: MIC AECO001"}}, "note": "Read-outs that look alike come from different tables or passages of the source."}
{"compound": "NCC[C@H](O)C(=O)N[C@@H]1C[C@H](N)[C@@H](O[C@H]2O[C@H](CN)[C@@H](O)[C@H](O)[C@H]2O)[C@H](O)[C@H]1O[C@H]1O[C@H](CO)[C@@H](O)[C@H](N)[C@H]1O", "note": "[Amikacin, amikacin, reference compound]", "values": [{"measurement": "ED50/MIC P. aeruginosa", "setting": "P. aeruginosa ATCC 27853 [1]", "value": 13}, {"measurement": "MIC", "setting": "P. aeruginosa ATCC 27853 [2]; [5]", "value": "1 to 16", "unit": "µg/mL"}, {"measurement": "ED50/MIC E. Coli", "setting": "E. coli ATCC 25922 [3]", "value": 1.5}, {"measurement": "MIC", "setting": "E. coli ATCC 25922 [4]; ATCC25922, Table 2, read-out: MIC E. coli", "value": "1 to 16", "unit": "µg/mL"}]}
{"compound": "CN[C@@H]1[C@@H](O)[C@@H](O[C@@H]2[C@@H](O)[C@H](O[C@H]3OC(CNCCO)=CC[C@H]3N)[C@@H](N)C[C@H]2NC(=O)[C@@H](O)CCN)OC[C@]1(C)O", "note": "[Example 1, 6′-(2-Hydroxy-ethyl)-1-(4-amino-2(S)-hydroxy-butyryl)-sisomicin]", "values": [{"measurement": "ED50/MIC P. aeruginosa", "setting": "P. aeruginosa ATCC 27853 [1]", "value": 4}, {"measurement": "MIC", "setting": "P. aeruginosa ATCC 27853 [2]; [5]", "value": "1 to 16", "unit": "µg/mL"}, {"measurement": "MIC", "setting": "P. aeruginosa ATCC 27853 [2]; [6]", "value": "1 to 16", "unit": "µg/mL"}, {"measurement": "ED50/MIC E. Coli", "setting": "E. coli ATCC 25922 [3]", "value": "<2"}, {"measurement": "MIC", "setting": "E. coli ATCC 25922 [4]; [7]", "value": "< 1", "unit": "µg/mL"}]}
{"compound": "CN[C@@H]1[C@@H](O)[C@@H](O[C@@H]2[C@@H](O)[C@H](O[C@H]3OC(CNCCO)=CC[C@H]3N)[C@@H](N)C[C@H]2NC(=O)[C@@H](O)CN)OC[C@]1(C)O", "note": "[Example 16, 6′-(2-Hydroxy-ethyl)-1-(3-amino-2(S)-hydroxy-propionyl)-sisomicin]", "values": [{"measurement": "ED50/MIC P. aeruginosa", "setting": "P. aeruginosa ATCC 27853 [1]", "value": 3}, {"measurement": "MIC", "setting": "P. aeruginosa ATCC 27853 [2]; [5]", "value": "1 to 16", "unit": "µg/mL"}, {"measurement": "MIC", "setting": "P. aeruginosa ATCC 27853 [2]; [6]", "value": "1 to 16", "unit": "µg/mL"}, {"measurement": "ED50/MIC E. Coli", "setting": "E. coli ATCC 25922 [3]", "value": 1}, {"measurement": "MIC", "setting": "E. coli ATCC 25922 [4]; [7]", "value": "< 1", "unit": "µg/mL"}]}
{"compound": "CN[C@@H]1[C@@H](O)[C@@H](O[C@@H]2[C@@H](O)[C@H](O[C@H]3OC(CNCCCN)=CC[C@H]3N)[C@@H](N)C[C@H]2NC(=O)[C@@H](O)CN)OC[C@]1(C)O", "note": "[Example 17, 6′-(3-Amino-propyl)-1-(3-amino-2(S)-hydroxy-propionyl)-sisomicin]", "values": [{"measurement": "ED50/MIC P. aeruginosa", "setting": "P. aeruginosa ATCC 27853 [1]", "value": 5}, {"measurement": "MIC", "setting": "P. aeruginosa ATCC 27853 [2]; [5]", "value": "1 to 16", "unit": "µg/mL"}, {"measurement": "MIC", "setting": "P. aeruginosa ATCC 27853 [2]; [6]", "value": "1 to 16", "unit": "µg/mL"}, {"measurement": "ED50/MIC E. Coli", "setting": "E. coli ATCC 25922 [3]", "value": 1}, {"measurement": "MIC", "setting": "E. coli ATCC 25922 [4]; [7]", "value": "< 1", "unit": "µg/mL"}]}
{"compound": "CN[C@@H]1[C@@H](O)[C@@H](O[C@@H]2[C@@H](O)[C@H](O[C@H]3OC(CNCC(O)CN)=CC[C@H]3N)[C@@H](N)C[C@H]2NC(=O)[C@@H](O)CN)OC[C@]1(C)O", "note": "(stereo partly drawn) [Example 22, 6′-(3-Amino-2-hydroxy-propyl)-1-(3-amino-2(S)-hydroxy-propionyl)-sisomicin]", "values": [{"measurement": "ED50/MIC P. aeruginosa", "setting": "P. aeruginosa ATCC 27853 [1]", "value": 8}, {"measurement": "MIC", "setting": "P. aeruginosa ATCC 27853 [2]; [5]", "value": "1 to 16", "unit": "µg/mL"}, {"measurement": "MIC", "setting": "P. aeruginosa ATCC 27853 [2]; [6]", "value": "1 to 16", "unit": "µg/mL"}, {"measurement": "ED50/MIC E. Coli", "setting": "E. coli ATCC 25922 [3]", "value": 1}, {"measurement": "MIC", "setting": "E. coli ATCC 25922 [4]; [7]", "value": "1 to 16", "unit": "µg/mL"}]}
{"compound": "CN[C@@H]1[C@@H](O)[C@@H](O[C@@H]2[C@@H](O)[C@H](O[C@H]3OC(CNCCCN)=CC[C@H]3N)[C@@H](N)C[C@H]2NC(=O)C2(O)CNC2)OC[C@]1(C)O", "note": "[Example 57]", "values": [{"measurement": "ED50/MIC P. aeruginosa", "setting": "P. aeruginosa ATCC 27853 [1]", "value": 14}, {"measurement": "MIC", "setting": "P. aeruginosa ATCC 27853 [2]; [5]", "value": "< 1", "unit": "µg/mL"}, {"measurement": "MIC", "setting": "P. aeruginosa ATCC 27853 [2]; [6]", "value": "< 1", "unit": "µg/mL"}, {"measurement": "ED50/MIC E. Coli", "setting": "E. coli ATCC 25922 [3]", "value": 2}, {"measurement": "MIC", "setting": "E. coli ATCC 25922 [4]; [7]", "value": "< 1", "unit": "µg/mL"}]}
{"compound": "CN[C@@H]1[C@@H](O)[C@@H](O[C@@H]2[C@@H](O)[C@H](O[C@H]3OC(CN)=CC[C@H]3NC(=N)N)[C@@H](N)C[C@H]2NC(=O)[C@@H](O)CCN)OC[C@]1(C)O", "note": "[Example 103, 2′-Guanidinium-1-(4-amino-2(S)-hydroxy-butyryl)-sisomicin]", "values": [{"measurement": "ED50/MIC P. aeruginosa", "setting": "P. aeruginosa ATCC 27853 [1]", "value": 6}, {"measurement": "MIC", "setting": "P. aeruginosa ATCC 27853 [2]; [5]", "value": "< 1", "unit": "µg/mL"}, {"measurement": "MIC", "setting": "P. aeruginosa ATCC 27853 [2]; [6]", "value": "< 1", "unit": "µg/mL"}, {"measurement": "ED50/MIC E. Coli", "setting": "E. coli ATCC 25922 [3]", "value": 2}, {"measurement": "MIC", "setting": "E. coli ATCC 25922 [4]; [7]", "value": "< 1", "unit": "µg/mL"}]}
{"compound": "gentamicin [reference compound]", "values": [{"measurement": "ED50/MIC P. aeruginosa", "setting": "P. aeruginosa ATCC 27853 [1]", "value": 12}, {"measurement": "MIC P. aeruginosa", "setting": "P. aeruginosa ATCC 27853 [2]; Table 2", "value": "A (MIC's of 1.0 μg/mL or less = A)"}, {"measurement": "ED50/MIC E. Coli", "setting": "E. coli ATCC 25922 [3]", "value": 2.4}, {"measurement": "MIC E. coli", "setting": "E. coli ATCC 25922 [4]; Table 2", "value": "A (MIC's of 1.0 μg/mL or less = A)"}]}
